The values below come from patent publication US20260035360A1, “INHIBITORS OF MYC AND USES THEREOF” (Northwestern University, priority 2022, published 2026).

For one series, the system named is PC3 cells. The experiment in a line: PC3 cell viability, CellTitreGlo Assay, 72 hrs. Format: cell-based. The note with it: Homo sapiens, PC-3. The method, then:
(§1) Table 2. Biological data of selected compounds. For IC50 determination. PC3 and PC12 cells were treated with increasing concentrations of the indicated compounds for 72 hrs and cell viability assessed using CellTitreGlo Assay (Promega). For MYC and ATF4 protein level determination. PC3 cells were treated with the indicated compounds for 24 hr sand cell lysates processed for western blot with MYC and ATF4 antibodies using Actin as a control. Quantification analyses were performed by Biorad ChemiDoc Imager and Bio-Rad Image Lab software.

A further series concerns PC12 cells. Briefly: PC12 cell viability, CellTitreGlo Assay, 72 hrs. The series is classed as cell-based. The settings on record: for pIC50: Rattus norvegicus, PC-12. The method, then: as §1
A further series deals with T1, MYC (Homo sapiens, UniProt P01106).
T1 construct: endogenous in cells; host or cells: PC3 cells
The experiment in a line: MYC protein level in PC3 cells by western blot, 24 hr. The series is classed as cell-based. The settings on record: PC-3, 24 h, PC3, 24 h, Actin control, read-out: Relative MYC protein at 10 μM (%, PC3 24 h). The method, then:
as §1
On the technique in general: A western blot detects proteins with antibodies after separation by electrophoresis.

A further series has as its system ATF4. Briefly: ATF4 protein level in PC3 cells by western blot, 24 hr. The series is classed as cell-based. The settings on record: Homo sapiens, PC-3, PC3, 24 h, Actin control, read-out: Relative ATF4 protein at 10 μM (fold change, PC3 24 h). On the procedure:
as §1

The conditions of series [1]: female, mouse, in vivo, po, 1 mg/kg.
Description: (§2) PK: Plasma levels of compounds were determined after 1 mg/kg dosing PO in female BALB/C mice.
(§3) Plasma levels of compounds were determined after 1 mg/kg dosing PO in female BALB/C mice.
Series [2] is described as follows: Plasma pharmacokinetics after 1 mg/kg PO in female mice. The settings on record: mouse; for half-life: female mice.
Description: as §2, §3
A further series deals with MycCaP;Pten-KO cells. The experiment in a line: Tumor growth inhibition, MycCaP;Pten-KO subcutaneous allograft in male FVB/N mice. Format: in vivo. The note with it: after 14 d; for TGI: QD, Table 7. The method, then:
Table 3. Biological data of selected compounds. […] Tumor growth inhibition (TGI) was determined after 14 d.
Table 7. Tumor Growth Inhibition data. […] Tumor growth inhibition (TOD was determined after 14 d.

pIC50: −log10 of the molar value.

T1 sequence (P01106 whole entry): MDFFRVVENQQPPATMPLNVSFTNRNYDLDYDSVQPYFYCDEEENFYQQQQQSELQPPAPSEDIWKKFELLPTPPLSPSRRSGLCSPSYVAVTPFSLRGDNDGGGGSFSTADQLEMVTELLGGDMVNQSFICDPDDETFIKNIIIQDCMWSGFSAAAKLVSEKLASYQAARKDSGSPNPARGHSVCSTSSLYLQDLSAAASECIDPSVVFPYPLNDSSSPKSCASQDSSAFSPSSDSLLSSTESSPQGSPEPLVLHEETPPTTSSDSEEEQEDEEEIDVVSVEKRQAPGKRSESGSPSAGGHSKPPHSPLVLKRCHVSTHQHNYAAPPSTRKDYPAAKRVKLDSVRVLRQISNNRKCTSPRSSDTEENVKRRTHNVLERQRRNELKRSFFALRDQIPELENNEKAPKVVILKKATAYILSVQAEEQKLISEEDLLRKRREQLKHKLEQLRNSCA

In the series with PC3 cells, `Cn1nc(C(F)(F)F)cc1-c1ccc(COc2ccc(Cl)cc2)c(-c2ccc(Cl)c(C(F)(F)F)c2)c1O` [NUCC-0202416] had a pIC50 of 5.33. For the same molecule, the “PC12 IC50” value in the series on PC12 cells was “inactive”. In addition, the remaining activity at 10 µM on MYC was determined as 38.9%. In the series on ATF4, the fold induction at 10 µM worked out at 9.3. In series [1], this molecule returned an AUMC0-t of 88636 h*h*ng/mL. In addition, in series [2], the AUC(0-t) turned out to be 5.76 µg·h/mL, the highest concentration (Cmax) is 0.244 µg/mL and the Tmax came to 8 h.
In the series on PC3 cells, `Cn1nc(C(F)(F)F)cc1-c1c(F)cc(OCc2ccc(Cl)cc2)c(-c2ccc(Cl)c(C(F)(F)F)c2)c1O` [NUCC-0226545] had a pIC50 of 5.66. The same molecule had a pIC50 in the series on PC12 cells of 4.97. In addition, the remaining activity at 10 µM at MYC came to 19.5%. Besides, the fold induction at 10 µM with ATF4 was found to be 4.7. In series [1], this molecule registered an AUMC0-t of 36107 h*h*ng/mL. Also, in series [2], the AUC(0-t) worked out at 4.76 µg·h/mL, the maximum concentration (Cmax) is 0.472 µg/mL, the MRT inf amounted to 7.57 h and the Tmax amounted to 4 h. This molecule had a half-life in series [2] (T1/2, Table 4, PO 1 mg/kg) of 4.3 h. The same molecule showed a half-life in series [2] (T1/2—range*, Table 4, PO 1 mg/kg) of 8 to 24 h.
`Cc1ncsc1-c1ccc(CNC(=O)[C@@H]2C[C@H](O)CN2C(=O)[C@H](NC(=O)COCCNC(=O)CCOCCCN(C(=O)c2ccc(Cl)c(C(F)(F)F)c2)c2ccc(-c3cc(C(F)(F)F)nn3C)c(O)c2)C(C)(C)C)cc1` [NUCC-0226291]: the pIC50 in the series on PC3 cells was 5.40; in the series on PC12 cells, 4.84. The remaining activity at 10 µM at MYC turned out to be 54.6%. Besides, the fold induction at 10 µM in the series on ATF4 came to 1.8.
Turning to `Cn1nc(N)cc1-c1ccc(OCc2ccc(Cl)cc2)c(-c2ccc(Cl)c(C(F)(F)F)c2)c1O` [NUCC-0226915], the values for the negative logarithm of the IC50 (pIC50) with PC3 cells and with PC12 cells were 4.85 and 4.98, respectively. For the same molecule, the remaining activity at 10 µM on MYC was 86.9%. Besides, in the series with ATF4, the fold induction at 10 µM amounted to 0.95.
`Cn1nc(C(F)(F)F)c(Cl)c1-c1cc(Cl)c(COc2ccc(Cl)cc2)c(-c2ccc(Cl)c(C(F)(F)F)c2)c1O` [NUCC-0227037] had a pIC50 in the series with PC3 cells of 6.02. This molecule had a pIC50 with PC12 cells of 4.96. Besides, the remaining activity at 10 µM on MYC was determined as 33.6%. For the same molecule, the fold induction at 10 µM with ATF4 worked out at 15.1. The molecule further showed a TGI in the series on MycCaP;Pten-KO cells (10 mg/kg p.o.) of 43.99%. Further, the tumour growth inhibition (TGI) in the series with MycCaP;Pten-KO cells (30 mg/kg p.o.) was determined as 57.24%. In addition, the TGI in the series with MycCaP;Pten-KO cells (100 mg/kg p.o.) was found to be 81.48%. In addition, the “Efficacy MycCaP;Pten-ko (TGI @ 100 mg/kg/d po)” value in the series on MycCaP;Pten-KO cells (100 mg/kg/d po, male FVB/N mice, Table 3) is recorded as 80. Besides, in series [1], the AUMC0-t came to 53530 h*h*ng/mL and the “AUMC0-∞” value amounted to 66373 h*h*ng/mL. In series [2], this molecule had an AUC(0-inf) of 4.21 µg·h/mL, an AUC(0-t) of 4 µg·h/mL, a Cmax of 0.202 µg/mL and an MRT inf of 15.8 h. For the same molecule, the Tmax in series [2] turned out to be 4 h. The half-life in series [2] (T1/2, Table 6, PO 1 mg/kg) was 10.7 h. The half-life in series [2] (T1/2—range*, Table 6, PO 1 mg/kg) was 8 to 48 h.
On to `Cn1nc(C(F)(F)F)cc1-c1ccc(-c2ccc(Cl)cc2)c(OCc2ccc(Cl)c(C(F)(F)F)c2)c1O` [NUCC-0226652], for which the pIC50 in the series with PC3 cells was 5.35; in the series with PC12 cells, 4.78. For the same molecule, the remaining activity at 10 µM at MYC stood at 72.3%. In addition, the fold induction at 10 µM in the series on ATF4 turned out to be 5.2.
For the molecule `Cn1nc(C(F)(F)F)cc1-c1cc(Cl)c(CNc2ccc(Cl)cc2)c(-c2ccc(Cl)c(C(F)(F)F)c2)c1O` [NUCC-0227062], the pIC50 is 6.02 with PC3 cells and 5.64 in the series with PC12 cells. Also, the remaining activity at 10 µM at MYC came to 40.7%. Moreover, in the series on ATF4, the fold induction at 10 µM was determined as 15.
For `Cn1nc(C(F)(F)F)cc1-c1ccc(Oc2ccc(Cl)cc2)c(-c2ccc(Cl)c(C(F)(F)F)c2)c1O` [NUCC-0227247], in that order: 5.94, 5.15, 46.7% and 18.3.
Regarding `Cn1nc(C(F)(F)F)c(Cl)c1-c1cc(Cl)c(Oc2ccc(Cl)cc2)c(-c2ccc(Cl)c(C(F)(F)F)c2)c1O` [NUCC-0227246], the pIC50 is 6.04 with PC3 cells and 5.24 in the series with PC12 cells. The remaining activity at 10 µM at MYC came to 37.3%. The fold induction at 10 µM in the series on ATF4 is 23.5.
Consider `Cn1nc(C(F)(F)F)cc1-c1ccc(N(CC23CC4CC(CC(C4)C2)C3)C(=O)c2ccc(Cl)c(C(F)(F)F)c2)cc1O` [NUCC-0226225], for which the pIC50 with PC3 cells is 5.68; with PC12 cells it was 4.84. In addition, the remaining activity at 10 µM on MYC is 28.4%. Moreover, the fold induction at 10 µM in the series on ATF4 was 15.2.
Take `COc1c(Cl)cc(-c2cc(C(F)(F)F)nn2C)c(O)c1-c1ccc(Cl)c(C(F)(F)F)c1` [NUCC-0226500]: the pIC50 was 5.80 in the series with PC3 cells and 5.07 in the series on PC12 cells. Also, the remaining activity at 10 µM at MYC turned out to be 72.4%. Moreover, the fold induction at 10 µM with ATF4 was 7.7.
On the same counts, the results for `Cn1nc(C(F)(F)F)cc1-c1ccnc(-c2ccc(Cl)c(C(F)(F)F)c2)c1O` [NUCC-0226595] are 6.13, 5.39, 69.8% and 6.3.
In the case of `Cn1nc(C(F)(F)F)cc1-c1ccc(OCc2ccc(OCCOCCNc3cccc4c3C(=O)N(C3CCC(=O)NC3=O)C4=O)cc2)c(-c2ccc(Cl)c(C(F)(F)F)c2)c1O` (centres unmarked) [NUCC-0226301], the pIC50 in the series with PC3 cells was 5.96; in the series on PC12 cells, 5.42. Moreover, the remaining activity at 10 µM at MYC came to 48.5%. Further, the fold induction at 10 µM with ATF4 was determined as 3.2.
Regarding `Cn1nc(C(F)(F)F)c(Cl)c1-c1cc(F)c(COc2ccc(Cl)cc2)c(-c2ccc(Cl)c(C(F)(F)F)c2)c1O` [NUCC-0227063], the figures for the negative logarithm of the IC50 (pIC50) in the series on PC3 cells and in the series on PC12 cells were 6.01 and 5.30, respectively. Besides, the remaining activity at 10 µM at MYC worked out at 37.2%. In addition, in the series on ATF4, the fold induction at 10 µM stood at 12.4.
Regarding `Cn1nc(C(F)(F)F)c(Cl)c1-c1cc(Cl)c(COc2ccc(Cl)cc2Cl)c(-c2ccc(Cl)c(C(F)(F)F)c2)c1O` [NUCC-0227038], the pIC50 in the series with PC3 cells was 5.79; in the series on PC12 cells it was 4.82. Also, the remaining activity at 10 µM on MYC stood at 34.5%. Further, the fold induction at 10 µM in the series on ATF4 was 15.1.
In the case of `Cn1nc(C(F)(F)F)cc1-c1cc(Cl)c(N)c(-c2ccc(Cl)c(C(F)(F)F)c2)c1O` [NUCC-0226528], the pIC50 with PC3 cells is 5.35; with PC12 cells, 4.52. Also, at MYC, the remaining activity at 10 µM amounted to 19.8%. For the same molecule, in the series on ATF4, the fold induction at 10 µM turned out to be 2.
For `Cn1nc(C#N)cc1-c1cc(Cl)c(COc2ccc(Cl)cc2)c(-c2ccc(Cl)c(C(F)(F)F)c2)c1O` [NUCC-0227065], in that order: 6.13, 5.42, 35.4% and 13.4.
As to `Cn1nc(C(F)(F)F)cc1-c1cc2c(c(-c3ccc(Cl)c(C(F)(F)F)c3)c1O)OC(c1ccc(Cl)cc1)CC2` (centres unmarked) [NUCC-0227173], the pIC50 in the series on PC3 cells was 5.32; in the series with PC12 cells, 4.85. The remaining activity at 10 µM on MYC amounted to 62.9%. Also, in the series with ATF4, the fold induction at 10 µM was found to be 9.
For `Cn1nc(C(F)(F)F)cc1-c1ccc(OCc2ccc(Cl)cc2)c(-c2ccc(Cl)c(C#N)c2)c1O` [NUCC-0226499], in that order: 5.62, 4.87, 37.3% and 17.1.
For `Cn1nc(C#N)cc1-c1ccc(OCc2ccc(Cl)cc2)c(-c2ccc(Cl)c(C(F)(F)F)c2)c1O` [NUCC-0226914], in that order: 5.99, 5.46, 48.5% and 14.1.
For `Cc1ccc(C2(Oc3ccc(-c4cc(C(F)(F)F)nn4C)c(O)c3-c3ccc(Cl)c(C(F)(F)F)c3)CC2)cc1` [NUCC-0226495], the pIC50 is 5.42 in the series with PC3 cells and 3.22 in the series with PC12 cells. In addition, the remaining activity at 10 µM on MYC is 15.6%. For the same molecule, in the series with ATF4, the fold induction at 10 µM came to 11.5.
On the same counts, the results for `Cn1nc(C(F)(F)F)cc1-c1cc2c(c(-c3ccc(Cl)c(C(F)(F)F)c3)c1O)CN(Cc1ccc(Cl)cc1)CC2` [NUCC-0227169] are 5.48, 5.10, 41.8% and 14.6.
As for `C[C@@H](C(=O)N[C@H](C(=O)N1C[C@@H](NC(=O)COCCOCCNC(=O)CCOCCCN(C(=O)c2ccc(Cl)c(C(F)(F)F)c2)c2ccc(-c3cc(C(F)(F)F)nn3C)c(O)c2)C[C@H]1C(=O)N[C@@H]1CCCc2ccccc21)C1CCCCC1)N(C)C(=O)OC(C)(C)C` [NUCC-0226299], the figures for the pIC50 with PC3 cells and in the series with PC12 cells were 5.42 and 4.95, respectively. In addition, the remaining activity at 10 µM at MYC came to 42.1%. The fold induction at 10 µM in the series on ATF4 was 5.4.

The term pIC50 denotes the negative decadic logarithm of the IC50, by convention in mol/L. A high value points to a low IC50. In general, AUC(0-t) refers to the area under the concentration-time curve up to a stated or last time point. Lower therefore signals less exposure. For orientation: Cmax means the highest concentration seen after dosing. A word on the Tmax: it is the time at which the peak concentration occurs. A word on the MRT inf: it is the average time that molecules of a dose stay in the body. The half-life is the time needed for the level to fall by half in the phase considered. In general, TGI refers to how far tumour growth fell short of that in controls. High values mean a stronger effect on the tumour, low ones a weaker effect on the tumour. Usually AUC(0-inf) stands for the area under the concentration-time curve extrapolated to infinity.
